Key:
[1] = biological target: T1, PDGFRA (Homo sapiens, UniProt P16234); experiment: KINOMEscan active-site competitive binding assay; settings: slash = two separate measurements
T1 construct: purchased DiscoveRx

[2] = biological target: PDGFRs; experiment: KINOMEscan active-site competitive binding assay; settings: range among family members
[3] = biological target: T2, KIT^K642E (Homo sapiens, UniProt P10721, K642E); experiment: Cellular kinase phosphorylation assay, GIST882/KIT^K642E; type: cell-based; settings: GIST882/KIT^K642E cells; 0.1% bovine serum albumin; brackets = number of experiments; read-out: Mean ± SD IC50
T2 construct: KIT^K642E assays were performed in a GIST cell line (GIST882); endogenous in cells; host or cells: GIST882
T2 sequence (P10721 26-976 K642E): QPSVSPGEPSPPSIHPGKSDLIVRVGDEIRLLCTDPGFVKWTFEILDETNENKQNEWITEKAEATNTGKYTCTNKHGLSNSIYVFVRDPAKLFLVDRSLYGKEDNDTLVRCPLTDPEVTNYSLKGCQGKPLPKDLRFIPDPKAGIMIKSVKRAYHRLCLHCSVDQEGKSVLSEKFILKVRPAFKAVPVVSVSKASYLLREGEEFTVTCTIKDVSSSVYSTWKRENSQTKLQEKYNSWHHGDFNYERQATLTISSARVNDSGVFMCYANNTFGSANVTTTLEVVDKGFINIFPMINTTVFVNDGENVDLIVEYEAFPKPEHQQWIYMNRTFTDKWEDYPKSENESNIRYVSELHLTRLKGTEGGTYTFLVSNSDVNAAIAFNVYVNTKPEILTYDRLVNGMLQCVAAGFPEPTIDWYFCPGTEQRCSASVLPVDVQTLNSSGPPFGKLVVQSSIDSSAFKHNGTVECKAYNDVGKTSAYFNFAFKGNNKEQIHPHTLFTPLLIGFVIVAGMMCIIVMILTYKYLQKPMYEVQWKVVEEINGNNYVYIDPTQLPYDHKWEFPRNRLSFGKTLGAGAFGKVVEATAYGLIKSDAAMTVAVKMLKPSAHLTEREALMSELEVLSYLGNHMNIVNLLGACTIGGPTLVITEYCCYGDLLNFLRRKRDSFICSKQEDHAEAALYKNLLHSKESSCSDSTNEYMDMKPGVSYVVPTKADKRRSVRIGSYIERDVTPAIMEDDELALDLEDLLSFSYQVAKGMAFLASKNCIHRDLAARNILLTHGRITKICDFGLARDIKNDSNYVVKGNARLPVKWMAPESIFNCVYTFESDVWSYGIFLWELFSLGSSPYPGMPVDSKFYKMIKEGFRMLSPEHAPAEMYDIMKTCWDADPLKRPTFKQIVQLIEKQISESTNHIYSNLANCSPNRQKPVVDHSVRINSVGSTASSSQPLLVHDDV

[4] = biological target: T3, FLT3^D835H (Homo sapiens, UniProt P36888, D835H); experiment: KINOMEscan active-site competitive binding assay
T3 construct: purchased DiscoveRx

[5] = biological target: RAFs; experiment: KINOMEscan active-site competitive binding assay; settings: range among family members
[6] = biological target: T4, FLT3 (Homo sapiens, UniProt P36888); experiment: KINOMEscan active-site competitive binding assay; settings: slash = two separate measurements
T4 construct: purchased DiscoveRx (KINOMEscan service)

[7] = biological target: T5, FLT3^K663Q (Homo sapiens, UniProt P36888, K663Q); experiment: KINOMEscan active-site competitive binding assay
T5 construct: purchased DiscoveRx

[8] = system: BaF/3 cells expressing an imatinib‐resistant mutant KIT (557‐558del; T670I); experiment: In vitro proliferation, BaF/3 cells expressing imatinib‐resistant mutant KIT; type: cell-based; settings: unpubl. data
[9] = system: recombinant murine VEGFR2; settings: cited from earlier work
[10] = system: HuLECs; settings: 100 nmol/L, 40 h, regorafenib data taken from ref 14; cited from earlier work

T1 sequence (P16234 24-1089): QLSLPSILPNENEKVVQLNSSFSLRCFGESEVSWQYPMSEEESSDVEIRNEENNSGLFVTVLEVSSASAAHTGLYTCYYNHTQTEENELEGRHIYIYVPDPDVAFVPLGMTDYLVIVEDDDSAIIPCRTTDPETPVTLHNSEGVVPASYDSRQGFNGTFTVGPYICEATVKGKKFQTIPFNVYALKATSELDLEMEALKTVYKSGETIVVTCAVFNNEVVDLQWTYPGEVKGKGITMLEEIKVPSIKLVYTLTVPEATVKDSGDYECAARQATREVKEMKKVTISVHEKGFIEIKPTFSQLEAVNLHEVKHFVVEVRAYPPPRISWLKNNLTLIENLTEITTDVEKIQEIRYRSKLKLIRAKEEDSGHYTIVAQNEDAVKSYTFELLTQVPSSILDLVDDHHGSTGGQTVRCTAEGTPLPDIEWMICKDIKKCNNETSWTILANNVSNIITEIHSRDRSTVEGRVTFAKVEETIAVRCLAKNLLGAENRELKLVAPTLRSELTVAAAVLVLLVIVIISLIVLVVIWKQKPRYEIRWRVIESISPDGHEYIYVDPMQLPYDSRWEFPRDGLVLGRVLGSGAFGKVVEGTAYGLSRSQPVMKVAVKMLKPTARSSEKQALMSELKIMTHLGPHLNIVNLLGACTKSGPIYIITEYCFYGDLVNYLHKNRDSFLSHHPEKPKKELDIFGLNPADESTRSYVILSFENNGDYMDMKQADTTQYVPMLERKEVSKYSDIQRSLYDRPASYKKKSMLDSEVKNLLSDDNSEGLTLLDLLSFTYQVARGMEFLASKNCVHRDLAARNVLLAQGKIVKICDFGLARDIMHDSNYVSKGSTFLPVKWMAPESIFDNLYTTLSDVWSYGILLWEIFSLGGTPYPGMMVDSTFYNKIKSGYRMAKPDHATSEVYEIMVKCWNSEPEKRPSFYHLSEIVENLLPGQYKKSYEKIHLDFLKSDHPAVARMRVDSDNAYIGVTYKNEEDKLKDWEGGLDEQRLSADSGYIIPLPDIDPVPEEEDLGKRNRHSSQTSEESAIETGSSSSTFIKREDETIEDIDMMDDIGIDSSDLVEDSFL

SMILES	Kd [1] [nM]	Kd [2] [nM]	IC50 [3] [nM]	Kd [4] [nM]	Kd [5] [nM]	Kd [6] [nM]	Kd [7] [nM]	Inhibition of proliferation [8]	IC50 [9] [nM]	Inhibition of VEGF‐C‐induced migration [10]
CNC(=O)c1cc(Oc2ccc(NC(=O)Nc3ccc(Cl)c(C(F)(F)F)c3)c(F)c2)cc[n+]1[O-] [M‐2]	7.3	7.3 to 11	4 ± 2	120	24 to 130					
NC(=O)c1cc(Oc2ccc(NC(=O)Nc3ccc(Cl)c(C(F)(F)F)c3)c(F)c2)cc[n+]1[O-] [M‐5]		11				2.6	5.5			
CNC(=O)c1cc(Oc2ccc(NC(=O)Nc3ccc(Cl)c(C(F)(F)F)c3)c(F)c2)ccn1 [Regorafenib, reference compound]								potent inhibition	~4	inhibited

Source: paper PMC5119973 (Cancer Medicine, 2016)
